Substitutions are numbered along the chain they refer to. Values after ≈ are worked out from the molar mass of the structure shown.
Key:
[1] = target: T1, 5-hydroxytryptamine receptor 3A (Homo sapiens, UniProt P46098); assay: Antagonist activity at human 5HT3A expressed in HEK293 cells incubated for 1 hr by FLIPR assay; format: cell-based
T1 sequence (P46098 whole entry): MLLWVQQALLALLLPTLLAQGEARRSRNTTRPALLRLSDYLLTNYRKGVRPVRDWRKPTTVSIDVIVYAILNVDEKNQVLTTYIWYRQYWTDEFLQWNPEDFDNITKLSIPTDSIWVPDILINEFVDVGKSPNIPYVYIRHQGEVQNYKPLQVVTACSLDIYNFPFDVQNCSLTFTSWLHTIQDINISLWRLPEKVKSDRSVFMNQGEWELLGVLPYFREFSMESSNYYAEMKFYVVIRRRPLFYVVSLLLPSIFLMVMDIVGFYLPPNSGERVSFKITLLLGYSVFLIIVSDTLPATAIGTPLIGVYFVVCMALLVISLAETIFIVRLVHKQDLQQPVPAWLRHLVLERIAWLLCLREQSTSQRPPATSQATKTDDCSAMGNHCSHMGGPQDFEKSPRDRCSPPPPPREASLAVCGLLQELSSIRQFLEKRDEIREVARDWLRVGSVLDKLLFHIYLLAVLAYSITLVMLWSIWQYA

[2] = target: T2, mouse BCRP (ABCG2) (Mus musculus, UniProt Q7TMS5); assay: Substrate activity at mouse BCRP assessed as efflux ratio at 1 uM; format: ADME; conditions: not told
T2 sequence (Q7TMS5 whole entry): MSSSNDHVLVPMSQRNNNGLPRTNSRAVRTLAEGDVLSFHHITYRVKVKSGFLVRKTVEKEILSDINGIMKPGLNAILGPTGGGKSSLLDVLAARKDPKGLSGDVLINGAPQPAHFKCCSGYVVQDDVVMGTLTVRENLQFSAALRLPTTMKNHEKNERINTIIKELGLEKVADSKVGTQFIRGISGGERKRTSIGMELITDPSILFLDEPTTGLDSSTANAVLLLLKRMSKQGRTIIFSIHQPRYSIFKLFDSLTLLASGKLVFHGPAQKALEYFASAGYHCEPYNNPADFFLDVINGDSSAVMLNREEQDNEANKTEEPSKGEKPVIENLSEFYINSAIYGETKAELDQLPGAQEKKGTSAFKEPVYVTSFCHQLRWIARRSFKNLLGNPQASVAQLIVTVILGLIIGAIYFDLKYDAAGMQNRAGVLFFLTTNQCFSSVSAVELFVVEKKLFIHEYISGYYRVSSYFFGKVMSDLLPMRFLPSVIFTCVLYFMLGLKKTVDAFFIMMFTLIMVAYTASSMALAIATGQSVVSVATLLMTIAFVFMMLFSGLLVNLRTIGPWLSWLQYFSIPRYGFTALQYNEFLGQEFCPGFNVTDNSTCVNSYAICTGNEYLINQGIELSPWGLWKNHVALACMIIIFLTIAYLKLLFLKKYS

[3] = Half life in rat; format: ADME; conditions: in vivo
[4] = target: T2, mouse BCRP (ABCG2); assay: Substrate activity at mouse BCRP assessed as apparent permeability at 1 uM; format: ADME; conditions: not told
[5] = target: T3, Ceramide glucosyltransferase (Homo sapiens, UniProt Q16739); assay: Inhibition of GCS in human fibroblast; format: cell-based
T3 sequence (Q16739 whole entry): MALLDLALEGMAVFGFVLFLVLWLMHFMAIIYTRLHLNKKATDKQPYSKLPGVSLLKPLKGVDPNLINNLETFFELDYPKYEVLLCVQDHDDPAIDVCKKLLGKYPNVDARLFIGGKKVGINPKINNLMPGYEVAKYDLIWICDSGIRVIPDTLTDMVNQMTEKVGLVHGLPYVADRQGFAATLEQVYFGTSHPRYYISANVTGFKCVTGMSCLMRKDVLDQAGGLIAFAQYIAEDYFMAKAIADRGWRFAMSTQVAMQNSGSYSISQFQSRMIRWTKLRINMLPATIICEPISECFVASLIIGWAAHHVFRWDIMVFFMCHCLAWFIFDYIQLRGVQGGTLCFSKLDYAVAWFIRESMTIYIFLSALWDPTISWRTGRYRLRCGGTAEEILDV

[6] = Clearance in dog; format: ADME, Canis lupus familiaris; conditions: in vivo
[7] = Half life in dog; format: ADME, Canis lupus familiaris; conditions: in vivo
[8] = Solubility of compound at pH 7 by HPLC method; format: physicochemical; conditions: buffer
[9] = Intrinsic clearance in rat at 5 to 10 mg/kg, po or 0.05 to 2 mg/kg, iv; format: ADME, organism-based; conditions: in vivo, dose 5-10 mg/kg
[10] = Solubility of compound at pH 2 by HPLC method; format: physicochemical; conditions: buffer
[11] = Unbound volume of distribution at steady state in rat; format: ADME; conditions: in vivo
[12] = species: Homo sapiens; assay: Selectivity ratio of IC50 for human 5HT3A to IC50 for GCS (unknown origin)
[13] = Unbound fraction in rat plasma; format: ADME, cell-free
[14] = Mean residence time in rat at 5 to 10 mg/kg, po or 0.05 to 2 mg/kg, iv; format: ADME, organism-based; conditions: in vivo, dose 5-10 mg/kg
[15] = Unbound brain-to-plasma concentration ratio in rat at 5 mg/kg, po after 2 hrs; format: ADME, organism-based; conditions: read-out: K(p,uu,brain)
[16] = target: T4, Ceramide glucosyltransferase (Mus musculus, UniProt O88693); assay: Inhibition of GCS in mouse fibroblast; format: cell-based
T4 sequence (O88693 whole entry): T3 sequence (Q16739 whole entry) with L8Q, V13L, L20V, A29S, G131A, Y196S, A251S

[17] = target: Cytochrome P450 3A4 (Homo sapiens, UniProt P08684); assay: Inhibition of CYP3A4 (unknown origin); format: ADME
[18] = Bioavailability in rat; format: ADME, organism-based; conditions: in vivo
[19] = test system: rat P-gp; assay: Substrate activity at rat P-gp assessed as efflux ratio at 1 uM; format: ADME; conditions: not told
[20] = Lipophilicity, logD of compound by HPLC method; format: physicochemical

Sequence of Cytochrome P450 3A4 (P08684 whole entry): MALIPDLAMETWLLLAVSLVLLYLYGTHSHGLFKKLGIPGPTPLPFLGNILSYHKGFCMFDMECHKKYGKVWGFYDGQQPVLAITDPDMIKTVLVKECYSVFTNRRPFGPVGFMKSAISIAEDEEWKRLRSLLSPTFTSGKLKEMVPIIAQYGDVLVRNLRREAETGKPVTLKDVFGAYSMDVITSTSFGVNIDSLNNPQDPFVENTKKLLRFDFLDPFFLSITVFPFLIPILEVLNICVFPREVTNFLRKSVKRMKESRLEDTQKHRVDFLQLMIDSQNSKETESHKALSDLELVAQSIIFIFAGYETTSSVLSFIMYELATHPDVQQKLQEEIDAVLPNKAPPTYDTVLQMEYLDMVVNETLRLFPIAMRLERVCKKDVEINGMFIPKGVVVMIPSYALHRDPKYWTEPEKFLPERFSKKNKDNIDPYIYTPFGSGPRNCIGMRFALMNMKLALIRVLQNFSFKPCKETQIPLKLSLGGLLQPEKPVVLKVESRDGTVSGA

Structure (SMILES): Cl.O=C(N1CCN2CCC1CC2)n1nc(-n2cc(C(F)(F)F)cn2)c2c1COCC2
- IC50 [1]: 1.97 µM
- efflux ratio at 1 µM [2]: 1.3
- half-life [3]: 3.4 h
- Papp at 1 µM [4]: 31 ×10⁻⁶ cm/s
- IC50 [5]: 0.032 µM
- clearance [6]: 12 mL/min/kg
- half-life [7]: 8.2 h
- solubility [8]: 168 µM
- CL [9]: 55 mL/min/kg
- solubility [10]: 174 µM
- fVdss [11]: 16 L/kg
- Ratio IC50 [12]: 1100
- fraction unbound [13]: 0.08
- MRT [14]: 5.3 h
- Kp uu at 2 h [15]: 1.3
- IC50 [16]: 0.017 µM
- IC50 [17]: > 50 µM
- bioavailability [18]: 95%
- efflux ratio at 1 µM [19]: 4.6
- logD [20]: 2.5

Structure (SMILES): O=C(N1CCN2CCC1CC2)n1nc(-c2ccc(F)cc2)c2c1COCC2
- IC50 [1]: 0.224 µM
- efflux ratio at 1 µM [2]: 1.4
- half-life [3]: 2.8 h
- Papp at 1 µM [4]: 31 ×10⁻⁶ cm/s
- IC50 [5]: 0.034 µM
- clearance [6]: 30 mL/min/kg
- half-life [7]: 2.4 h
- solubility [8]: 170 µM (≈ 63 µg/mL)
- CL [9]: 90 mL/min/kg
- solubility [10]: 167 µM (≈ 61.9 µg/mL)
- fVdss [11]: 17 L/kg
- Ratio IC50 [12]: 64
- fraction unbound [13]: 0.11
- MRT [14]: 3.5 h
- Kp uu at 2 h [15]: 0.4
- IC50 [16]: 0.021 µM
- IC50 [17]: > 50 µM
- bioavailability [18]: 73%
- efflux ratio at 1 µM [19]: 3.4
- logD [20]: 2.2

Reference: ChEMBL document CHEMBL5223177, “Pyrazole Ureas as Low Dose, CNS Penetrant Glucosylceramide Synthase Inhibitors for the Treatment of Parkinson's Disease” (ACS Med Chem Lett, 2023)
